Experimental data taken from patent US10350213B2 (AI Therapeutics, Inc., priority 2015, dated 2019).
Read-outs that look alike come from different tables or passages of the source.

Assays:
[1] = test system: TSC2−/− mouse embryonic fibroblasts (TSC2−/− MEF) cells; test: High throughput cell viability screen (CellTiter-Glo); type: cell-based; conditions: 72 h
Experimental: (§1) Briefly, test compounds (5 μl stock solution, 6×desired final well concentration) were dispensed to 384-well assay plates, TSC2−/− MEF cells (1000 cells per well in 25 μL of media) were added to the plates and the plates were incubated for 72 h (3 days) at 37° C. under an atmosphere of 5% CO2 in a humidified incubator for 3 days. Cell viability was determined with CellTiter-Glo® luminescence assay (Promega) per the manufacturer's instructions. Viability was expressed as a percentage of untreated control cells.

[2] = test system: AsPC1 (Human pancreatic cancer); test: CellTiterGlo cell viability assay; type: cell-based
[3] = test system: non-cancer (normal) cells; test: Cell viability assay, non-cancer (normal) cells; type: cell-based
Description: This is exemplified in FIG. 2A for the HCT116 colorectal carcinoma cells. […] And all NHL subtypes were sensitive in this assay, including mantle, follicular, Burkitt's, DLBCL-ABC, DLBCL-GCB, and double-hit DLBCL.

H4 neuroglioma cells = test: Endolysosomal (vacuole) phenotype, DIC images; type: cell-based, Human; conditions: 100 nM apilimod, 24 hrs
Description: PIKfyve produces the lipid products PI(3,5)P2 and PI5P, which in turn serve to establish membrane identity and control endolysosomal dynamics. Studies have shown that the PI(3,5)P2 depletion arising from inhibition of PIKfyve produces a swollen endolysosome phenotype. […] This phenotype was reversible, and cancer cell lines reverted to normal appearance within 3-4 days after drug removal.

[4] = test system: SUDHL-4 (Human Diffuse Large B Cell Lymphoma -GCB); test: CellTiterGlo cell viability assay; type: cell-based
[5] = test system: WSU-DLCL2 (Human Diffuse Large B Cell Lymphoma -GCB); test: CellTiterGlo cell viability assay; type: cell-based
IL-12/IL-23 synthesis = conditions: oral administration; patients with psoriasis; Wada et al. 2012; cited from earlier work
[6] = test system: 22RV1 (Human prostate cancer); test: CellTiterGlo cell viability assay; type: cell-based
[7] = test system: MiaPaCa-2 (Human pancreatic cancer); test: CellTiterGlo cell viability assay; type: cell-based; conditions: MIA PaCa-2
[8] = test system: HCT116 (Human colorectal cancer); test: CellTiterGlo cell viability assay; type: cell-based; conditions: HCT-116
Experimental: as §1
(§2) 35 cell lines were identified as sensitive to apilimod-induced cytotoxicity in this assay. The apilimod-sensitive cells included cells derived from several different cancers including non-Hodgkin's lymphoma, Hodgkin's lymphoma, colorectal cancer, and lung cancer. The most sensitive of those tested were non-Hodgkin's Lymphoma (NHL) cell lines. […] The only NHL subtype not sensitive in this assay was follicular.

[9] = test system: RL (Human Follicular B Cell Lymphoma); test: CellTiterGlo cell viability assay; type: cell-based
Experimental: as §1, §2

[10] = test system: KMH-2 (Human Hodgkin's lymphoma); test: CellTiterGlo cell viability assay; type: cell-based; conditions: KM-H2
Experimental: as §1, §2

SW620 (Human Colorectal) = test: CellTiterGlo cell viability assay; type: cell-based; conditions: SW-620
Experimental: as §1, §2

[11] = test system: Rec-1 (Human Mantle Cell Lymphoma); test: CellTiterGlo cell viability assay; type: cell-based; conditions: Rec1
Experimental: as §1, §2

[12] = test system: H460 (Human lung carcinoma); test: CellTiterGlo cell viability assay; type: cell-based; conditions: NCI-H460
Experimental: as §1, §2

[13] = test system: Pfeiffer (Human Diffuse Large B Cell Lymphoma -GCB); test: CellTiterGlo cell viability assay; type: cell-based; conditions: Human DLBCL-GCB
Experimental: as §1, §2

[14] = test system: EB1 (Human Burkitt's lymphoma); test: CellTiterGlo cell viability assay; type: cell-based
Experimental: as §1, §2

[15] = test system: Toledo (Human Diffuse Large B Cell Lymphoma -GCB); test: CellTiterGlo cell viability assay; type: cell-based; conditions: Human DLBCL-GCB
Experimental: as §1, §2

[16] = test system: SUDHL-1 (Human Anaplastic Large Cell Lymphoma); test: CellTiterGlo cell viability assay; type: cell-based; conditions: SU-DHL-1
Experimental: as §1, §2

[17] = test system: Daudi (Human Burkitt's lymphoma); test: CellTiterGlo cell viability assay; type: cell-based
Experimental: as §1, §2

[18] = test system: MDST8 (Human colorectal cancer); test: CellTiterGlo cell viability assay; type: cell-based
Experimental: as §1, §2

[19] = test system: U-118 MG (Human neuroblastoma); test: CellTiterGlo cell viability assay; type: cell-based
Experimental: as §1, §2

[20] = test system: CAMA1 (Human breast cancer); test: CellTiterGlo cell viability assay; type: cell-based; conditions: CAMA-1
Experimental: as §1, §2

[21] = test system: DOHH-2 (Human Follicular B Cell Lymphoma-GCB); test: CellTiterGlo cell viability assay; type: cell-based; conditions: Human Follicular Lymphoma - DLBCL-GCB
Experimental: as §1, §2

[22] = test system: CA46 (Human Burkitt's lymphoma); test: CellTiterGlo cell viability assay; type: cell-based
Experimental: as §1, §2

[23] = test system: DLD-1 (Human colorectal cancer); test: CellTiterGlo cell viability assay; type: cell-based
Experimental: as §1, §2

[24] = test system: COLO-205 (Human Colorectal); test: CellTiterGlo cell viability assay; type: cell-based
Experimental: as §1, §2

[25] = test system: H1693 (Human lung carcinoma); test: CellTiterGlo cell viability assay; type: cell-based; conditions: NCI-H1693
Experimental: as §1, §2

LOVO (Human Colorectal) = test: CellTiterGlo cell viability assay; type: cell-based
Experimental: as §1, §2

[26] = test system: NCI-1975 (Human lung carcinoma); test: CellTiterGlo cell viability assay; type: cell-based
Experimental: as §1, §2

[27] = test system: SW780 (Human Bladder carcinoma (GATOR−/−)); test: CellTiterGlo cell viability assay; type: cell-based
[28] = test system: synovial IL-12 and IL-23 expression; conditions: patients with rheumatoid arthritis; Krauz et al. 2012; cited from earlier work
[29] = test system: SW1088 (Human neuroblastoma); test: CellTiterGlo cell viability assay; type: cell-based

Cc1cccc(/C=N/Nc2cc(N3CCOCC3)nc(OCCc3ccccn3)n2)c1 [apilimod]
viability at 0.5 µM ([1]; MEF-EV, 0.5 μM, Mean+/−StDev, n=3, read-out: cell viability (percentage of untreated control cells)): 2.16% | viability at 5 µM ([1]; MEF-EV, 5 μM, Mean+/−StDev, n=3, read-out: cell viability (percentage of untreated control cells)): 1.94% | IC50 ([1]; TSC2−/− MEF cells, 10 point dose-response): 19.5 nM | IC50 [2]: > 2000 nM | IC50 [3]: 15800 nM | cell phenotype (H4 neuroglioma cells): striking swollen endolysosomal (vacuole) phenotype | IC50 ([4]; Homo sapiens, 72 h, SU-DHL-4, three-day assay, read-out: IC50 (nM) SU-DHL-4): 23 nM | IC50 ([4]; Homo sapiens, SU-DHL-4, 72 h, SUDHL-4, 3-day CellTiterGlo assay, read-out: IC50): 50 nM | IC50 ([4]; SU-DHL-4, SUDHL-4, Human DLBCL-GCB, read-out: IC50): 25 nM | IC50 ([5]; Homo sapiens, WSUDLCL2, 72 h, three-day assay, read-out: IC50 (nM) WSU-DLCL2): 54 nM | IC50 ([5]; WSUDLCL2, Human DLBCL-GCB, read-out: IC50): 160 nM | immunomodulatory activity (IL-12/IL-23 synthesis): showed immunomodulatory activity | IC50 [6]: > 5000 nM | IC50 [7]: > 2000 nM | IC50 [8]: 125 nM | IC50 [9]: > 10000 nM | IC50 [10]: 181 nM | IC50 (SW620 (Human Colorectal)): 90 nM | IC50 [11]: 300 nM | IC50 [12]: > 2000 nM | IC50 [13]: 2620 nM | IC50 [14]: 174 nM | IC50 [15]: 270 nM | IC50 [16]: 590 nM | IC50 [17]: 200 nM | IC50 [18]: 1000 nM | IC50 [19]: > 10000 nM | IC50 [20]: > 10000 nM | IC50 [21]: 700 nM | IC50 [22]: > 10000 nM | IC50 [23]: > 5000 nM | IC50 [24]: 380 nM | IC50 [25]: 2000 nM | IC50 (LOVO (Human Colorectal)): > 10000 nM | IC50 [26]: > 10000 nM | IC50 [27]: 1000 nM | effect on synovial IL-12 and IL-23 expression [28]: failed to alter synovial IL-12 and IL-23 expression | IC50 [29]: > 10000 nM
